Test results published in publication PMC6496756, “Zerumbone, a cyclic sesquiterpene, exerts antimitotic activity in HeLa cells through tubulin binding and exhibits synergistic activity with vinblastine and paclitaxel” (Cell Proliferation, 2018).

Target: T1, tubulin (alpha/beta heterodimer)
T1 construct: purified goat brain tubulin; with alpha-tubulin/beta-tubulin heterodimer
Assay: intrinsic tryptophan fluorescence quenching; also competition with colchicine and inhibition of tubulin polymerization
Format: binding, Capra hircus

C/C1=C\CC(C)(C)/C=C/C(=O)/C(C)=C/CC1 [zerumbone, (2E,6E,10E)‐2,6,9,9‐tetramethylcycloundeca‐2,6,10‐trien‐1‐one]
Kd: 4 µM
